According to patent US7868135B2, “Compositions of lipopeptide antibiotic derivatives and methods of use thereof” (priority 2003, dated 2011):

Columns and labels:
[1] = tested on: Streptococcus pneumoniae (SPN032, ATCC 1081); experiment: Intranasal murine lung infection model; type: in vivo; settings: Swiss CD1 mice, i.n. S. pneumoniae, i.v. treatment at 3, 24 and 48 hours post-infection, deaths over ten days
Experimental: Other exemplary in vivo models of infection that may be used to assess, for example, the efficacy of an antimicrobial lipopeptide of the instant disclosure include the following: (A) a mouse (murine) model of lung infection (pneumonia) wherein the bacterial infection is administered intranasally (i.n.); (B) a murine thigh muscle model wherein the bacterial infection is administered intramuscularly (i.m.) in normal or neutropenic (immunocompromised) mice; and (C) a combination murine thigh muscle model (i.m. infection)/lung (i.n.) infection.
Antimicrobial lipopeptide derivatives of the instant invention were tested for antimicrobial activity against Gram-positive bacteria in an intranasal (i.n.) murine lung infection model (i.e., bacteria were innoculated i.n. and lipopeptide compounds were administered i.v.). Streptococcus pneumoniae (SPN032, ATCC 1081) were grown on 5% sheep blood agar plates for 24 h at 37° C., harvested and then resuspended in 0.9% saline. A group of eight Swiss CD1 mice were sedated with 2% isoflurane, and each was infected i.n. dropwise to the nares with 50 μl of the prepared bacterial inoculum (i.e., a dose of about 10^6 CFU/mouse). […] The ED50 (mg/kg) for each compound was calculated using the method of Reed and Meunch (Am. J. Hyg. 27: 493, 1938).

[2] = tested on: S. pneumoniae (SPN 0032, ATCC 10813); experiment: Intraperitoneal murine model of protection against infection (ED50, Table 21); type: in vivo, Streptococcus pneumoniae; settings: Swiss CD1 mice infected i.p., compound i.v.
From the text: A variety of in vivo models may be used to assess the antimicrobial properties of lipopeptide derivative compounds of this disclosure. For example, antimicrobial compounds of the instant disclosure may be tested for efficacy by measuring a compound's ability to protect a mouse against a microbial infection, such as an infection or disease caused by or related to Gram-positive bacteria, including Staphylococcus aureus, Streptococcus pneumoniae, and Enterococcus faecalis. […] A certain period after infection, mice are then individually treated, for example intravenously (i.v.), with a lipopeptide derivative of this disclosure.
Antimicrobial lipopeptide derivatives of the instant invention were tested for antimicrobial activity against Gram-positive bacteria in an intraperitoneal (i.p.) murine model (i.e., bacteria were injected i.p. and lipopeptide compounds were administered intravenously (i.v.)). Mice were infected with Staphylococcus aureus, Streptococcus pneumoniae, or Enterococcus faecalis, which were prepared as follows: S. aureus Smith (SAU0017, ATCC 19636) were grown in culture overnight on trypticase soy broth, harvested and then resuspended in fresh media containing 5% mucin (Sigma Chemical Co.); S. pneumoniae (SPN 0032, ATCC 10813) were grown overnight on blood agar plates and re-suspended in 0.9% sterile saline; and E. faecalis EFS0040 (clinical isolate) were grown overnight in culture on blood heart infusion broth, washed and resuspended in 0.9% saline and mixed with equal volume of sterile fecal rat extract. Swiss CD1 mice were each infected i.p. with bacteria at the following doses: S. aureus at 10^6 CFU/mouse; S. pneumoniae at 10^2 CFU/mouse; or E. faecalis at 10^7.5 CFU/mouse. […] The ED50 for each compound was calculated using the method of Reed and Meunch (Am. J. Hyg. 27: 493, 1938).

[3] = tested on: Streptococcus pneumoniae (SPN0002); experiment: Lung infection model in neutropenic mice; type: in vivo
Experimental: Antimicrobial lipopeptide derivatives of the instant invention were tested for antimicrobial activity against Gram-positive bacteria in an intranasal (i.n.), immunocomprimised murine lung infection model (i.e., bacteria were innoculated i.n. and lipopeptide compounds were administered i.v.). Streptococcus pneumoniae (SPN0002) were grown on 5% sheep blood agar plates for 24 h at 37° C., harvested and then resuspended in 0.9% saline. A group of three to four Swiss CD1 mice were rendered neutropenic by administration of cyclophosphamide (Sigma Chemical Co.; 150 mg/kg, i.p.) on day −4 and −1 before infection. At time −18 to −24 hours, each mouse was infected i.n. dropwise via the nares with 50 μl of the prepared bacterial inoculum (i.e., a dose of about 5×10^6 CFU/mouse). At 18 to 24 hours post-infection, the groups of mice received i.v. (1) a lipopeptide derivative formulated in a 5% D-mannitol solution at a dose of about 1 mg/kg, 3 mg/kg, 10 mg/kg, or 30 mg/kg; (2) the 5% mannitol vehicle alone at a dose volume of 10 mL/kg; or (3) a known antibiotic, such as ampicillin, at a similar dose as the lipopeptide compounds. At 18 to 24 hours post-antibiotic treatment, mice were sacrificed and lungs harvested. Lungs were sampled by spreading homogenates on blood agar plates and incubating for 24 h at 37° C., and then counting the number of CFU. The EKill (killing effect; i.e., log10 CFU/lung reduction as compared to CFU count at intial treatment time) and the EMax (maximum reduction effect; i.e., log10 CFU/lung reduction as compared to CFU count of control at 24 hours) for each compound was calculated.

SMILES	ED50 [1] [mg/kg]	ED50 in Mice, S. pneumoniae (SPN0032) [2] [mg/kg]	EKill (log10 CFU/lung reduction versus count at initial treatment time) ([3]; 30 mg/kg i.v.) [log10 CFU/lung]	log10 CFU/lung reduction (EMax, versus control at 24 hours) ([3]; highest dose level 30 mg/kg i.v.) [log10 CFU/lung]
CCCCCCCCCCCCCCC(=O)NC(CC(=O)O)C(=O)NC1C(=O)N2CCCCC2C(=O)NC(C(C)C(=O)O)C(=O)NC(CC(=O)O)C(=O)NCC(=O)NC(CC(=O)O)C(=O)NCC(=O)NC(C(C)NC(=O)CNC(=O)[C@@H](N)CCCCN)C(=O)NC(C(C)C)C(=O)N2CCCC2C(=O)NC1C (stereo partly shown) [Compound 4, C15-Amphomycin-9-Gly-Lys]	1.3			
CCCCCCCCCCCCCCC(=O)NC(CC(=O)O)C(=O)NC1C(=O)N2CCCCC2C(=O)NC(C(C)C(=O)O)C(=O)NC(CC(=O)O)C(=O)NCC(=O)NC(CC(=O)O)C(=O)NCC(=O)NC(C(C)NC(=O)CCN)C(=O)NC(C(C)C)C(=O)N2CCCC2C(=O)NC1C (stereo not drawn) [Compound 147, C15-Amphomycin-9-(β-Ala)]		0.65	3.2	4.0
